Earlier results on one molecule are cited in patent publication US5505931A, “Acid cleavable compounds, their preparation and use as bifunctional acid-labile crosslinking agents” (The Dow Chemical Company, priority 1993, dated 1996).

The subject of this data set is tumor. The settings on record: unconjugated controls.

Turning to `COc1cccc2c1C(=O)c1c(O)c3c(c(O)c1C2=O)C[C@@](O)(C(C)=O)C[C@@H]3O[C@H]1C[C@H](N)[C@H](O)[C@H](C)O1` [daunomycin], the “response in control experiments” value is reported as “inferior response”.
